Values after ≈ are worked out from the molar mass of the structure shown. Like-named read-outs stand apart in the source and are kept apart here.
What was measured:
[1] = Fish toxicity test, median tolerance limit 48 hours (Test Example 1); format: in vivo, Oryzias latipes (killifish); conditions: in vivo; Oryzias latipes, 48 hours; read-out: Fish toxicity TLm48 (a)
Description: (§1) Ten member group of Oryzias latipes (0.2-0.3 g/fish) was released in a 10-liter glass vessel containing 10 liters of a test preparation which was dissolved or suspended in "Tween 80" and diluted successively with dechlorinated tap water. After 48 hours, the dead and alive were counted to determine median tolerance limit (48 hours) [TLm48 (ppm)] value.

[2] = system: R-type Nephotettix cincticeps; test: Insecticidal activity test, activity to Nephotettix cincticeps (Test Example 1); format: in vivo
Description: 2. Insecticidal activity test.
Test emulsion preparations were prepared in the same manner as in Formulation Example 1.
Activity to Nephotettix cinciticips
The test insect was resistant to carbamates (hereinafter referred to as R-type). The active ingredient content of test preparation was varied in 4 levels within the range of 500 to 1 ppm. The test preparation was sprayed over 180-ml plastic cups grown with rice plant one-month old from sowing and placed on a turn table, the application rate having been 15 cc/2 cups. After air drying, the plant was covered with a wire-screen cage. A group of 15 female adults of R-type Nephotettix cincticeps was released in each cage and kept at 26° C. in an artificial climate condition. After 24 hours, the dead and alive were observed. The median lethal concentration [LC50 (ppm)] was calculated from the mortality determined by 3-repetition test.

[3] = system: Oryzias latipes / Nephotettix cincticeps; test: Fish safety coefficient calculated from fish toxicity and insecticidal activity (Test Example 1); conditions: for Safety coefficient to fishes (a)/(b): TLm48 (Oryzias latipes) divided by concentration in water at LC50 for N. cincticeps
Description: In order to make more clear the low fish toxicity and the high activity to target insects, which are charcteristic of the compounds of this invention, a fish safety coefficient was calculated from the test results of fish toxicity and insecticidal activity by the following equation and shown in Table 2. [formula]
In the case of N. cincticeps, calculation was based on a hyothetical concentration of the test compound in water obtained by assuming that a test preparation of the active ingredient content corresponding to LC50 (ppm) was sprayed over a submerged paddy field, 5 cm in depth of water, at a rate of 100 liters per 10 ares and total active ingredient was absorbed by the water.
For example, in the case of compound (1) of this invention, the quantity of water per 10 ares of the submerged paddy field, 5 cm in depth of water, is 50 tons. If a preparation of the active ingredient content equivalent to LC50 (ppm) of the compound (1) is sprayed at a rate of 100 liters per 10 ares, the concentration of the compound (1) in the water is 0.007 ppm. The fish toxicity [TLm48 ] of the compound (1) is 6.0 ppm. The fish safety coefficient (857.1) is obtained by dividing 6.0 by 0.007.

[4] = Oral toxicity test (Test Example 10); conditions: in vivo, male mouse, corn oil
Description: The present compound (1) was dissolved or suspended in a corn oil, and the resulting solution was orally administered to a male mouse (18 to 22 g) at a rate of 0.2 ml/10 g body weight. After 24 hours, the mortality was examined to obtain the median lethal dose (LD50 mg/kg).

[5] = Toxicity to carps (Test Example 12); format: in vivo; conditions: carp, dechlorinated tap water, read-out: TLm48
Description: (§2) The dust of the present compound (1) prepared in Formulation Example 2 was diluted with dechlorinated tap water to a predetermined concentration of active ingredient. Ten liters of the test solution was placed in a 10-liter glass vessel, and 10 killifishes (Oryzias latipes) were liberated therein. After 48 hours, the dead and alive were examined, and TLm48 (ppm) was calculated from the concentration of active ingredient.
Toxicity to carps was tested according to the test method for toxicity to fishes described in Test Example 11, and TLm48 (ppm) values after 48 hours were obtained.

Oryzias latipes = test: Fish toxicity test, median tolerance limit 48 hours (Test Example 1); format: in vivo, Oryzias latipes (killifish); conditions: killifish, in words
Description: as §1

Laodelphax striatellus = test: Insecticidal activity, Laodelphax striatellus (Test Example 4); format: in vivo; conditions: Laodelphax striatellus female adults, 24 hours, 26° C.
Description: The emulsion preparation containing the compound (1) of this invention, described in Formulation Example 1, was diluted with water. The active ingredient content of the test prepartion was varied in 4 levels within the range of 150 to 10 ppm. The test preparation was sprayed over 180 ml plastic cups grown with rice plant and placed on a turn table the application rate having been 15 cc/2 cups. After air drying, the plant was covered with a wire-screen cage. A group of 15 female adults of Laodelphax striatellus was released in each cage and kept at 26° C. in an artificial climate condition. After 24 hours, the dead and alive were observed. The median lethal concentration [LC50 (ppm)] was calculated from the mortality determined by 3-repetition test.

[6] = system: WHO strain housefly female adults (Musca domestica); test: Topical application to housefly (Test Example 5); format: in vivo; conditions: 24 hours
Description: The present compound (1) was diluted with acetone to four different concentrations.
The acetone dilute solution was topically applied to the ventral thorax of WHO strain housefly female adults (Musca domestica), at a rate of 0.5 μl/adult by means of a microsyringe.
The adults were then liberated in a plastic cup of 12 cm in diameter and given a 1% sugar water. After 24 hours, the dead and alive were examined. The median lethal does (LD50 μg/adult) was obtained from the mortality of 50 adults per group.

[7] = system: third instar larvae of rice stem borer (Chilo suppressalis); test: Rice seedling dipping test, rice stem borer (Test Example 6); format: in vivo; conditions: 240 h, 10 days, read-out: larvae killed
Description: The emulsifiable concentrate of the present compound (1) prepared in Formulation Example 1 was diluted with water so that the concentration of active ingredient was 500 ppm. Five rice seedlings which had elapsed 10 days after sowing were dipped in the dilute solution and air-dried. The rice seedlings and 10 third instar larvae of rice stem borer (Chilo suppressalis) were placed in a plastic cup (diameter 5.5 cm, height 3.5 cm) which was then placed in an artificial climate chamber kept at 26° C.

[8] = system: full grown larvae of Aedes aegypty (Culex pipiens pallens); test: Mosquito larvae test (Test Example 7); format: in vivo; conditions: 24 hours, read-out: larvae killed
Description: The emulsifiable concentrate of the present compound (1) prepared in Preparation example 1 was diluted with distilled water so that the concentration of active ingredient was 0.1 ppm. One hundred milliliters of the dilute solution was placed in a 180-ml plastic cup, and 30 full grown larvae of Aedes aegypty (Culex pipiens pallens) were liberated therein. After 24 hours, 100% of the larvae could be killed.

[9] = system: carmine mites (Tetranychus cinnabarinus); test: Acaricidal test on rice plants, carmine mites (Test Example 8); format: in vivo; conditions: 500 ppm, after 10 days
Description: The emulsifiable concentrate of the present compound (1) prepared in Formulation Example 1 was diluted with water so that the concentration of active ingredient was 500 ppm. The dilute solution was then thoroughly sprayed on rice plants (grown in a 1/10,000 are Wagner's pot) on which carmine mites (Tetranychus cinnabarinus) in all stages were made parasitic.

[10] = system: green rice leafhopper (Nephotettix cincticeps); test: Residual effect test (Test Example 9); format: in vivo; conditions: 400 ppm, 24 hours
Description: The emulsifiable concentrate of the present compound (1) prepared in Formulation Example 1 was diluted with water so that the concentration of active ingredient was 400 ppm. Thereafter, 20 cc of the dilute solution was sprayed on rice plants grown in a 1/10,000 are Wagner's pot. The rice plants were air-dried and covered with a wire-screen cage, and 15 female adults of green rice leafhopper (Nephotettix cincticeps) were liberated therein. After 24 hours, the dead and alive were examined to obtain mortality. In order to examine the residual effect, the pot was then left as it was for 7 days, and the test insects were liberated in the same manner as above. After 24 hours, the mortality was examined. The experiment was carried out in a greenhouse and the number of repetitions was three.

[11] = Fish toxicity of dust, killifishes (Test Example 11); format: in vivo; conditions: dechlorinated tap water, dust of Formulation Example 2, Oryzias latipes, read-out: TLm48
Description: as §2

[12] = system: green rice leafhopper (Nephotettix cincticeps); test: Model paddy field box test, green rice leafhopper (Test Example 13); format: in vivo; conditions: wettable powder, 100 ppm, 100 liter/10 are, after 48 hours
Description: (§3) The wettable powder of the present compound (1) prepared in Formulation Example 3 was diluted with water so that the concentration of active ingredient was 100 ppm. Soil was placed in a plastic box [5m×5m×2m (deep)] to a level of 50 cm from the bottom, and rice plants about 50 cm high were transplanted at intervals of 50 cm. Water was then placed in the bos so that water depth was 5 cm, and 20 killifishes (Oryzias latipes) were liberated therein. Thereafter, the above dilute solution was sprayed on the box at a rate of 100 liter/10 are. The solution fell on the rice plants as well as on the water surface.
(§4) One hour after treatment, 100 female adults of green rice leafhopper (Nephotettix cincticeps) were liberated in the box which was immediately covered with a net.

[13] = system: killifishes (Oryzias latipes); test: Model paddy field box test, killifishes (Test Example 13); format: in vivo; conditions: wettable powder, 100 ppm, 100 liter/10 are, water depth 5 cm, after 48 hours
Description: as §3, §4

[14] = system: R-type Nephotettix cincticeps; test: Mortality by isomer mixtures on rice plant (Test Example 2); format: in vivo; conditions: 10 ppm active ingredient, 24 hours
Text: The present compound (1) and (2) were mixed in a predetermined proportion, formulated into an emulsifiable concentrate according to Formulation Example 1 and diluted with water so that the amount of active ingredient was 10 ppm.
The test preparation was sprayed over rice plant in tillering stage planted in a 1/10,000 are Wagner pot, at a rate of 15 cc per pot. After airdrying, the plant was covered with a wire-screen cage into which were released 15 female adults of R-type Nephotettix cincticeps. The pot was kept at 26° C. in an artificial climate condition. After 24 hours, the dead and alive were observed and the mortality was obtained by 3-repetition test.

[15] = R-type (carbamate-resistant) Nephotettix cincticeps female adults, 24 hours, 26° C., read-out: LC50

CC1(C)C(C=C(Cl)Cl)C1C(=O)OC(C#N)c1cccc(Oc2ccc(F)cc2)c1 (racemic) [(E), m-(p-fluorophenoxy)-α-cyanobenzyl dl-cis,trans-2,2-dimethyl-3-(2,2-dichlorovinyl)cyclopropanecarboxylate]
LC50 at 48 h [1]: 0.003 mg/L (≈ 0.00691 µM) | LC50 [2, 15]: 5 mg/L (≈ 11.5 µM) | Safety coefficient to fishes (a)/(b) [3]: 0.3 | LD50 at 24 h [4]: 300 mg/kg

CC1(C)C(C=C(Cl)Cl)C1C(=O)OC(C#N)c1cccc(Oc2ccccc2)c1 (racemic) [Reference compound (D), m-phenoxy-α-cyanobenzyl dl-cis,trans-2,2-dimethyl-3-(2,2-dichlorovinyl)-cyclopropanecarboxylate]
LC50 at 48 h [1]: 0.026 mg/L (≈ 0.0625 µM) | LC50 [2, 15]: 5 mg/L (≈ 12 µM) | Safety coefficient to fishes (a)/(b) [3]: 2.6 | LD50 at 24 h [4]: 112 mg/kg | LC50 at 48 h [5]: ≤ 0.01 mg/L

CC1(C)C(C=C(Cl)Cl)C1C(=O)OCc1cccc(Oc2ccccc2)c1 (racemic) [(C), m-phenoxybenzyl dl-cis,trans-2,2-dimethyl-3-(2,2-dichlorovinyl)cyclopropanecarboxylate]
LC50 at 48 h [1]: 0.027 mg/L (≈ 0.069 µM) | LC50 [2, 15]: 18 mg/L (≈ 46 µM) | Safety coefficient to fishes (a)/(b) [3]: 0.8 | LD50 at 24 h [4]: 650 mg/kg

CNC(=O)Oc1ccc(C)c(C)c1 [(F)]
LC50 at 48 h [1]: 11.9 mg/L (≈ 66.4 µM) | LC50 ([2]; Nephotettix cincticeps, 24 h): 350 mg/L (≈ 1950 µM) | Safety coefficient to fishes (a)/(b) [3]: 17.0 | LD50 at 24 h [4]: 60 mg/kg

CC1(C)C(C=C(Cl)Cl)C1C(=O)OC(C#N)c1cccc(Oc2ccc(Br)cc2)c1 (racemic) [(A), m-(p-bromophenoxy)-α-cyanobenzyl dl-cis, trans-2,2-dimethyl-3-(2,2-dichlorovinyl)cyclopropanecarboxylate]
LC50 at 48 h [1]: 0.9 mg/L (≈ 1.82 µM) | LC50 [2, 15]: 8 mg/L (≈ 16.2 µM) | Safety coefficient to fishes (a)/(b) [3]: 56.3

CC1(C)[C@H](C=C(Cl)Cl)[C@H]1C(=O)OC(C#N)c1cccc(Oc2ccc(Br)cc2)c1 (relative stereo) [Compound (1), m-(p-bromophenoxy)-α-cyanobenzyl dl-trans-2,2-dimethyl-3-(2,2-dichlorovinyl)cyclopropanecarboxylate]
LC50 at 48 h [1]: 6 mg/L (≈ 12.1 µM) | toxicity to killifish compared with reference compounds (Oryzias latipes): lower in toxicity to killifish than the reference compounds (A), (C), (D) and (E) | insecticidal activity compared with reference compounds ([2]; Nephotettix cincticeps, in words): higher in insecticidal activity than the reference compounds (A), (C) and (F) | LC50 [2, 15]: 3.5 mg/L (≈ 7.07 µM) | Safety coefficient to fishes (a)/(b) [3]: 857.1 | safety coefficient to fishes compared with reference compounds ([3]; in words): shows a very high value as compared with that of the reference compounds | LC50 (Laodelphax striatellus): 70 mg/L (≈ 141 µM) | LD50 [6]: 0.035 μg/adult | mortality at 500 ppm [7]: 100% | mortality at 0.1 ppm [8]: 100% | degree of damage by the carmine mites [9]: the spreading of damage could be prevented | Mortality (%), effect immediately after treatment [10]: 100% | Mortality (%), effect 7 days after treatment ([10]; insects liberated 7 days after treatment): 100% | LD50 at 24 h [4]: > 2000 mg/kg | LC50 at 48 h [11]: > 10 mg/L | LC50 at 48 h [5]: > 10 mg/L | green rice leafhoppers found [12]: no green rice leafhoppers were found | survival of killifishes [13]: all of the killifishes were alive

CC(C)=CC1C(C(=O)OCc2cccc(Oc3ccccc3)c2)C1(C)C (racemic) [(B), m-phenoxybenzyl dl-cis,trans chrysanthemate]
mortality at 10 ppm [14]: 10%

— US4265906A, “Low mammalian toxic and/or low fish toxic insecticides and/or acaricides” (priority 1978, dated 1981)
